Common to all, as to format: biochemical
One test addresses MMP-9 (Homo sapiens, UniProt P14780). Put plainly: MMP-9 inhibition (thiopeptide or fluorescent peptide substrate). The conditions noted are these: read-out: MMP-9 IC50.
In a further test the target is MMP-13 (Homo sapiens, UniProt P45452). Description: MMP-13 inhibition (thiopeptide or fluorescent peptide substrate).
The target in test [1] is TNF-α converting enzyme (TACE) (Homo sapiens, UniProt P78536). Description: TACE inhibition (fluorescent peptidyl substrate). The settings on record: read-out: TACE IC50.
The next test addresses T1, MMP-1 (Homo sapiens, UniProt P03956).
T1 sequence (P03956 100-469): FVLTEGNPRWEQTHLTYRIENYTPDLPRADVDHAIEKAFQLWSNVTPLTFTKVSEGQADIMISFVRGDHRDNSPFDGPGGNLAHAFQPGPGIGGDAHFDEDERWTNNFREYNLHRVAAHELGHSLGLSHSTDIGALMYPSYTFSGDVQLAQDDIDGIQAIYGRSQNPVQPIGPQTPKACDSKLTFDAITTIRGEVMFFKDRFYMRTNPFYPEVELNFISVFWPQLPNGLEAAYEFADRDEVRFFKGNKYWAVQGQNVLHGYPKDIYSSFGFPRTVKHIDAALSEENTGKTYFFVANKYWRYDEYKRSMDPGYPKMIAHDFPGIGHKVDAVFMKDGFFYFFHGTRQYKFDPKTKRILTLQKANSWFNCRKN
Put plainly: MMP-1 inhibition (thiopeptide or fluorescent peptide substrate). The settings on record: read-out: MMP-1 IC50.

Setting [2] is: Table 11, read-out: MMP-13 IC50.

18 compounds from patent US6716833B2, “Acetylenic α-amino acid-based sulfonamide hydroxamic acid tace inhibitors” (priority 1999, dated 2004) can be followed below.

Structures can show the parent of a compound that is named as a salt. Where two headings read alike, the source gives them in different places.

Usually IC50 stands for the point on the concentration scale where inhibition reaches its midpoint.

Sequence of MMP-9 (P14780 94-707): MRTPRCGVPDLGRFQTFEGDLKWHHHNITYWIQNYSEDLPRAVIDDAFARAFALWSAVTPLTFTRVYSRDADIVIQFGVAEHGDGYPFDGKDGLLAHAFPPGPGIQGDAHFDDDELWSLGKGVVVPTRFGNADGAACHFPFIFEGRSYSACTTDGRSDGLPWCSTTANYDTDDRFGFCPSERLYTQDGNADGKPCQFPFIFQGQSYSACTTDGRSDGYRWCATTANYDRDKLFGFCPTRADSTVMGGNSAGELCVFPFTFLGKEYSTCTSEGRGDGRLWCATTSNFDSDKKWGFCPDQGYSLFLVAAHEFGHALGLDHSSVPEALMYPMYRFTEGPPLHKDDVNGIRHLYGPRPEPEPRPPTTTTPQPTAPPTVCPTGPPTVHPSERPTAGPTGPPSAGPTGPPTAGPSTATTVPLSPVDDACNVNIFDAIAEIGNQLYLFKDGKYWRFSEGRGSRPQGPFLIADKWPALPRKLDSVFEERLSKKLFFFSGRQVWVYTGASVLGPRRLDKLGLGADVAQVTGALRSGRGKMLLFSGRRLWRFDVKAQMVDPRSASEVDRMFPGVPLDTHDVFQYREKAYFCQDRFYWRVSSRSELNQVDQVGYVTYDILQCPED
Sequence of TNF-α converting enzyme (TACE) (P78536 215-824, species assumed): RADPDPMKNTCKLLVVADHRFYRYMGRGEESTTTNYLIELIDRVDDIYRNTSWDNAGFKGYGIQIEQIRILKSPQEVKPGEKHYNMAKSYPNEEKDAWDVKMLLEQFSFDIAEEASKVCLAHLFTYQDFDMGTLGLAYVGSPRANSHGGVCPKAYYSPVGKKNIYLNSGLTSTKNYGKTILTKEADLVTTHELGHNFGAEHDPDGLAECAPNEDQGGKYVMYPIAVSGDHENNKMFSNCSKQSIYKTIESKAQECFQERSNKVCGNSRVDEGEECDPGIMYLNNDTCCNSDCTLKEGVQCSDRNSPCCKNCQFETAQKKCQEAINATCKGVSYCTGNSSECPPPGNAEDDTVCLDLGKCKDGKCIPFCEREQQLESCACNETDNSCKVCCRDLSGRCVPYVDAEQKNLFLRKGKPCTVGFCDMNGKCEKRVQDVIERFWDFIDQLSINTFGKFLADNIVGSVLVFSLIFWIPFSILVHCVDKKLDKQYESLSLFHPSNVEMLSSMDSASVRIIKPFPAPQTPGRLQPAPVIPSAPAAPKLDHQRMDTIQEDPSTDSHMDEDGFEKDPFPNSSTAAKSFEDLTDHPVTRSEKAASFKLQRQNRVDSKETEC
Procedure for MMP-13: (§1) The enzyme activity is measured by the rate of the color increase. The thiopeptide substrate is made up fresh as a 20 mM stock in 100% DMSO and the DTNB is dissolved in 100% DMSO as a 100 mM stock and stored in the dark at room temperature. Both the substrate and DTNB are diluted together to 1 mM with substrate buffer (50 mM HEPES pH 7.5, 5 mM CaCl2) before use. The stock of enzyme is diluted with buffer (50 mM HEPES, pH 7.5, 5 mM CaCl2, 0.02% Brij) to the desired final concentration.
(§2) Alternatively, a fluorescent peptide substrate is used. In this test procedure, the peptide substrate contains a fluorescent group and a quenching group. Upon cleavage of the substrate by an MMP, the fluorescence that is generated is quantitated on the fluorescence plate reader. The assay is run in HCBC assay buffer (50 mM HEPES, pH 7.0, 5 mM Ca^+2, 0.02% Brij, 0.5% Cysteine), with human recombinant MMP-1, MMP-9, or MMP-13. […] For the assay, substrate and enzymes are diluted in HCBC buffer to the desired concentrations. Compounds are added to the 96 well plate containing enzyme and the reaction is started by the addition of substrate.
(§3) For either the thiopeptide or fluorescent peptide test procedures, the slope of the line is calculated and represents the reaction rate. The linearity of the reaction rate is confirmed (r^2>0.85). The mean (x±sem) of the control rate is calculated and compared for statistical significance (p<0.05) with drug-treated rates using Dunnett's multiple comparison test.
Procedure for MMP-9: as §1, §2, §3

For `CC#CCOc1ccc(S(=O)(=O)N(C)C(C(=O)NO)C(C)(C)SCc2cccnc2)cc1` (stereo not drawn) [Example 152, 2-[(4-but-2-ynyloxy-Benenesulfonyl)-methyl-amino]-N-hydroxy-3-methyl-3-(pyridin-3-ylmethylsulfanyl)-butyramide], the figures for the concentration for half-maximal inhibition (IC50) (on MMP-9; against MMP-13 (MMP-13 IC50); in test [1]) were 3.7 nM, 1.7 nM and 74 nM, respectively.

Regarding `CC#CCOc1ccc(S(=O)(=O)N2CCNCC2C(=O)NO)cc1` (stereo not drawn) [Example 214, 1-(4-but-2-ynyloxy-Benzenesulfonyl)-piperazine-2-carboxylic Acidhydroxyamide], the values for the IC50 (at MMP-9; at MMP-13 (read-out: MMP-13 IC50); in test [1]) were 14 nM, 7.6 nM and 23 nM, respectively.

As for `CC#CCOc1ccc(S(=O)(=O)N2CCN(C(=O)N(CC)CC)CC2C(=O)NO)cc1` (stereo not drawn) [Example 216, 4-(4-but-2-ynyloxy-Benzenesulfonyl)-piperazine-1,3-dicarboxylic Acid 1-Diethylamide 3-Hydroxyamide], the IC50 on MMP-9 came to 221 nM; at MMP-13 (read-out: MMP-13 IC50) it was 97 nM; in test [1], 28 nM.

For `CC#CCOc1ccc(S(=O)(=O)N2CCN(C(=O)OCc3ccccc3)CC2C(=O)NO)cc1` (stereo not drawn) [Example 219, Benzyl 4-{[4-(2-Butynyloxy)phenyl]sulfonyl}-3-[(hydroxyamino)carbonyl]-1-piperazinecarboxylate], the IC50 on MMP-1 worked out at 176 nM; on MMP-9 it was 45 nM; on MMP-13 (read-out: MMP-13 IC50), 10 nM.

For `CC#CCOc1ccc(S(=O)(=O)N2CCN(C(=O)c3cccs3)CC2C(=O)NO)cc1` (stereo not drawn) [Example 226, 1-(4-but-2-ynyloxy-Benzenesulfonyl)-4-(thiophene-2-carbonyl)-piperazine-2-carboxylic Acid Hydroxyamide], the IC50 turned out to be 251 nM on MMP-9, 119 nM on MMP-13 (read-out: MMP-13 IC50) and 12 nM in test [1].

Turning to `CC#CCOc1ccc(S(=O)(=O)N2CCN(C(=O)OC)CC2C(=O)NO)cc1` (stereo not drawn) [Example 228, 4-(4-but-2-ynyloxy-Benzenesulfonyl)-3-hydroxycarbamoyl-piperazine-1-carboxylic Acid Methyl Ester], the IC50 worked out at 71 nM on MMP-9, 9.2 nM on MMP-13 (read-out: MMP-13 IC50) and 9 nM in test [1].

With `CC#CCOc1ccc(S(=O)(=O)N2C[C@H](CC(=O)OC(C)(C)C)SC(C)(C)[C@@H]2C(=O)NO)cc1` [Example 277, tert-Butyl{(2S,5S)-4-{[4-(2-butynyloxy)phenyl]sulfonyl}-5-[(hydroxyamino)carbonyl]-6,6-dimethylthiomorpholinyl}acetate], the IC50 on MMP-1 (Table 11) came to 7.8 nM; at MMP-13 (setting [2]), 7.6 nM; in test [1] (Table 11), 234 nM.

For `CC#CCOc1ccc(S(=O)(=O)N2C[C@H](CC(=O)O)SC(C)(C)[C@@H]2C(=O)NO)cc1` [Example 278, [(2S,5S)-4-{[4-(2-Butynyloxy)phenyl]sulfonyl}-5-[(hydroxyamino)carbonyl]-6,6-dimethylthiomorpholinyl}acetic Acid], the IC50 was 17 nM at MMP-1 (Table 11), 6.7 nM on MMP-13 (setting [2]) and 20 nM in test [1] (Table 11).

With `CC#CCOc1ccc(S(=O)(=O)N2C[C@H](CC(=O)NO)SC(C)(C)[C@@H]2C(=O)NO)cc1` [Example 279, (3S,6S)-4-{[4-(2-Butynyloxy)phenyl]sulfonyl}-N-hydroxy-6-[2-(hydroxyamino)-2-oxoethyl]-2,2-dimethyl-3-thiomorpholinecarboxamide], the IC50 at MMP-1 (Table 11) amounted to 21 nM; on MMP-13 (setting [2]), 4.5 nM; in test [1] (Table 11), 46 nM.

On to `CC#CCOc1ccc(S(=O)(=O)N2C[C@H](CC(N)=O)SC(C)(C)[C@@H]2C(=O)NO)cc1` [Example 280, (3S,6S)-6-(2-Amino-2-oxoethyl)-4-{[4-(2-butynyloxy)phenyl]sulfonyl}-N-hydroxy-2,2-dimethyl-3-thiomorpholinecarboxamide], for which the half-inhibitory concentration (IC50) was 35 nM on MMP-1 (Table 11), 29 nM on MMP-13 (setting [2]) and 42 nM in test [1] (Table 11).

In the case of `CC#CCOc1ccc(S(=O)(=O)N2C[C@H](CC(=O)N(C)C)SC(C)(C)[C@@H]2C(=O)NO)cc1` [Example 281, (3S,6S)-4-{[4-(2-Butynyloxy)phenyl]sulfonyl}-6-[2-(dimethylamino)-2-oxoethyl]-N-hydroxy-2,2-dimethyl-3-thiomorpholinecarboxamide], the IC50 on MMP-1 (Table 11) amounted to 50 nM; on MMP-13 (setting [2]), 23 nM; in test [1] (Table 11) it was 130 nM.

With `CC#CCOc1ccc(S(=O)(=O)N2C[C@H](CC(=O)N3CCOCC3)SC(C)(C)[C@@H]2C(=O)NO)cc1` [Example 282, (3S,6S)-4-{[4-(2-Butynyloxy)phenyl]sulfonyl}-N-hydroxy-2,2-dimethyl-6-[2-(4-morpholinyl)-2-oxoethyl]-3-thiomorpholinecarboxamide], the IC50 at MMP-1 (Table 11) came out at 25 nM; on MMP-13 (setting [2]), 20 nM; in test [1] (Table 11) it was 95 nM.

With `CC#CCOc1ccc(S(=O)(=O)N2C[C@H](CC(=O)N3CCN(C)CC3)SC(C)(C)[C@@H]2C(=O)NO)cc1` [Example 283, (3S,6S)-4-{[4-(2-Butynyloxy)phenyl]sulfonyl}-N-hydroxy-2,2-dimethyl-6-[2-(4-methyl-1-piperazinyl)-2-oxoethyl]-3-thiomorpholinecarboxamide hydrochloride], the concentration for half-maximal inhibition (IC50) was 28 nM on MMP-1 (Table 11), 23 nM at MMP-13 (setting [2]) and 143 nM in test [1] (Table 11).

As to `CC#CCOc1ccc(S(=O)(=O)N2C[C@H](CC(=O)NCCN(C)C)SC(C)(C)[C@@H]2C(=O)NO)cc1` [Example 284, (3S,6S)-4-{[4-(2-Butynyloxy)phenyl]sulfonyl}-6-(2-{[2-(dimethylamino)ethyl]amino}-2-oxoethyl)-N-hydroxy-2,2-dimethyl-3-thiomorpholinecarboxamide], the IC50 at MMP-1 (Table 11) worked out at 31 nM; at MMP-13 (setting [2]), 76 nM; in test [1] (Table 11), 125 nM.

Regarding `CC#CCOc1ccc(S(=O)(=O)N2CCN(Cc3ccccc3)CCC2C(=O)NO)cc1` (stereo not drawn) [Example 290, 1-Benzyl-4-{[4-(2-butynyloxy)phenyl]sulfonyl}-N-hydroxy-1,4-diazepane-5-carboxamide], the IC50 at MMP-1 was 287 nM; at MMP-9 it was 25 nM; in test [1] it was 83 nM.

On to `CC#CCOc1ccc(S(=O)(=O)N2CCNCCC2C(=O)NO)cc1` (stereo not drawn) [Example 292, 4-{[4-(2-Butynyloxy)phenyl]sulfonyl}-N-hydroxy-1,4-diazepane-5-carboxamide], for which the IC50 was determined as 274 nM on MMP-1, 33 nM at MMP-13 (read-out: MMP-13 IC50) and 24 nM in test [1].

With `CC#CCOc1ccc(S(=O)(=O)N2CCN(C)CCC2C(=O)NO)cc1` (stereo not drawn) [Example 293, 4-{[4-(2-Butynyloxy)phenyl]sulfonyl}-N-hydroxy-1-methyl-1,4-diazepane-5-carboxamide], the 50% inhibitory concentration (IC50) at MMP-1 came to 238 nM; at MMP-13 (MMP-13 IC50), 21 nM; in test [1], 23 nM.

For the compound `CC#CCOc1ccc(S(=O)(=O)N2C=CSC(C)(C)[C@@H]2C(=O)NO)cc1` [Example 379, (3S)-4-{[4-(2-Butynyloxy)phenyl]sulfonyl}-N-hydroxy-2,2-dimethyl-3,4-dihydro-2H-1,4-thiazine-3-carboxamide], the values for the IC50 (on MMP-1 (Table 11); on MMP-13 (setting [2]); in test [1] (Table 11)) were 316 nM, 271 nM and 16 nM, respectively.
